Reference: ChEMBL document CHEMBL1201862, “PubChem BioAssay data set” (2004)
Active and inactive are the calls of the source.

Legend:
Prothrombin = Prothrombin (Homo sapiens, UniProt P00734); assay: Thrombin 1536 HTS Dose Response Confirmation. [Related pubchem assays: 1046 (Thrombin 1536 HTS; hits were confirmed in this assay)]; format: functional
[1] = tested on: Streptococcus sp. 'group A'; assay: growth inhibition of control SK(-) GAS strain, dose response, counter-screen for streptokinase expression inhibitor project, luminescence, kanamycin, BacTiterGlo, confirmation (AID 1900); format: functional, organism-based
Streptococcus = assay: Group A Streptococcus viability loss, dose response, counter-screen for streptokinase expression inhibitor project, luminescence, BacTiterGlo (AID 1915); format: functional, organism-based;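 further: potency for reduction of bacterial viability or growth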
[2] = biological target: Heat shock protein HSP 90-alpha (Homo sapiens, UniProt P07900); format: functional, organism-based
[3] = biological target: DNA dC->dU-editing enzyme APOBEC-3G (Homo sapiens, UniProt Q9HC16); format: functional;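 further: Dose-response counterscreen measuring inhibition of APOBEC3G DNA deaminase activity, run while confirming APOBEC3A inhibitors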
[4] = biological target: DNA dC->dU-editing enzyme APOBEC-3A (Homo sapiens, UniProt P31941); assay: Dose Response confirmation of small molecule APOBEC3A DNA Deaminase Inhibitors via a fluorescence-based single-stranded DNA deaminase assay. [Related pubchem assays (depositor defined):AID493011, AID493024]; format: functional
[5] = MC4R antagonists, dose response, counter-screen for LGR2 antagonist project, cell-based, plate reader, cherry pick (AID 743444); format: functional;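 further: transfected HEK 293 cells stimulated with alpha-MSH peptide; potency of inhibitors of the alpha-MSH evoked signal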
HEK293 = assay: inhibitors of LMP1-driven NF-kB reporter, dose response, cell-based, HEK293, luciferase, cherry-pick (AID 588343); format: functional; details: Homo sapiens
[6] = LGR2 antagonists, dose response, cell-based, HEK293, CRE-luciferase reporter, cherry pick, set 2 (AID 743343); format: functional;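 further: transfected cells were stimulated with diluted bursicon conditioned medium after compound addition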
[7] = HepG2 cell cytotoxicity, dose response, cytotoxicity control, plate reader, cherry-pick, antagonist series (AID 743416); format: functional, cell-based
[8] = HEK293 cell cytotoxicity, dose response, cytotoxicity control, plate reader, cherry-picked samples (AID 743446); format: functional, cell-based
[9] = A cytotoxicity screen of small molecule inhibitors of the PhoP region in Salmonella typhi identified in the primary screen. [Related pubchem assays: 1850, 1864, 1985 ]; format: functional
[10] = biological target: Induced myeloid leukemia cell differentiation protein Mcl-1 (Homo sapiens, UniProt Q07820); format: functional
[11] = biological target: T1, Endoribonuclease toxin MazF (Escherichia coli K-12, UniProt P0AE70); assay: MazF toxin RNase activators, dose response, biochemical, fluorescence, single-stranded RNA substrate, uHTS hits (AID 588481); format: functional
T1 sequence (P0AE70 whole entry): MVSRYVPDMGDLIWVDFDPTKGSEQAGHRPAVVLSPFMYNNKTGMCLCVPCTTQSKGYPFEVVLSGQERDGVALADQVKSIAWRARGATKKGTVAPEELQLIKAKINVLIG

[12] = biological target: T1, Endoribonuclease toxin MazF; assay: fluorescent RNA oligo signal without MazF, dose response, counter-screen for MazEF activator project, biochemical, fluorescence, single-stranded RNase substrate (AID 588502); format: functional
[13] = biological target: T2, Carboxy-terminal domain RNA polymerase II polypeptide A small phosphatase 1 (Homo sapiens, UniProt Q9GZU7); assay: inhibitors of CTDSP1, concentration-response testing, biochemical assay, absorbance-based, actives from ultra-high-throughput screening (AID 540297); format: functional
T2 sequence (Q9GZU7 whole entry): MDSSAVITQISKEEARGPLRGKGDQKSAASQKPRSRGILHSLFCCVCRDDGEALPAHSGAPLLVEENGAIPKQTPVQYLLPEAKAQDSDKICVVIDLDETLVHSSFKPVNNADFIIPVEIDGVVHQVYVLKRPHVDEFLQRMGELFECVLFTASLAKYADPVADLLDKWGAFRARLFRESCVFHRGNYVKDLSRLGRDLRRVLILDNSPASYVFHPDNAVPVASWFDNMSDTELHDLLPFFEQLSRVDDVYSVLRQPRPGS

[14] = Luminescence Cell-Based Dose Confirmation HTS to Identify Inhibitors of Platelet Dense Granule Release. [Related pubchem assays: 1663 (Primary HTS), 1678 (Summary of Project)]; format: functional
[15] = biological target: Luciferin 4-monooxygenase (Photinus pyralis, UniProt P08659); assay: firefly luciferase enzyme inhibitors, dose response, biochemical, luminescence (AID 1891)
Genome polyprotein = Genome polyprotein (dengue virus type 2, UniProt P29990); assay: Dengue-2 NS5 methyltransferase inhibitors, primary screen, biochemical, confirmation dose response (AID 588689); format: functional
Cytochrome P450 2C9 [16] = biological target: T3, Cytochrome P450 2C9 (Homo sapiens, UniProt P11712)
Cytochrome P450 2C19 = Cytochrome P450 2C19 (Homo sapiens, UniProt P33261); assay: Cytochrome panel assay with activity outcomes. Panel member name: p450-cyp2c19 Compounds with AC50 equal or less than 10 uM are considered active; format: functional; details: read-out: AC50
Cytochrome P450 3A4 = Cytochrome P450 3A4 (Homo sapiens, UniProt P08684);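 further: CYP3A4 tested as one member of a cytochrome P450 panel screen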
Cytochrome P450 2C9 [17] = biological target: T3, Cytochrome P450 2C9; remark: listed apart in the source
Cytochrome P450 1A2 = biological target: T4, Cytochrome P450 1A2 (Homo sapiens, UniProt P05177);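 further: PubChem cytochrome P450 panel assay, CYP1A2 panel member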
T4 sequence (P05177 whole entry): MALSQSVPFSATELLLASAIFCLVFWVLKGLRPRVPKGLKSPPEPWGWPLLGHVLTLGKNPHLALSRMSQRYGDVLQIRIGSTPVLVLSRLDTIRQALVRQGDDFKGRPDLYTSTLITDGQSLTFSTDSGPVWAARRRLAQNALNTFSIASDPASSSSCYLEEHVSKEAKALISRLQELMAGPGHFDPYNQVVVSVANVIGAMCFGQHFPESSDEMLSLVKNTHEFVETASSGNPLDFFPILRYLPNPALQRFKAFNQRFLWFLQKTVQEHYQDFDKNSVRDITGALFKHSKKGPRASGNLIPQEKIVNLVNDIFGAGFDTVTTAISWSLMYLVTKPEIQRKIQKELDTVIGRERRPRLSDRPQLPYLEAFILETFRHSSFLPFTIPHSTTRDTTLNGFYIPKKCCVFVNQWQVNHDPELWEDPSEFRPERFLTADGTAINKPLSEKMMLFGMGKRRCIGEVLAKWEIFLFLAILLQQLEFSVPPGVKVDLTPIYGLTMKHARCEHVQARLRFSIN

[18] = Shn3 3'UTR reporter inhibitors, dose response, cell-based, Clone20 osteoblasts, firefly luciferase, cherry-picked (AID 624132); format: functional;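 further: firefly luciferase luminescence from reporter carrying the Shn3 3'UTR in osteoblasts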
[19] = control 3'UTR Renilla luciferase suppression, dose response, counter-screen for Shn3 inhibitor project, cell-based, Clone20-Shn3RL, cherry-picked (AID 624133); format: functional
[20] = HepG2 cell cytotoxicity, dose response, cytotoxicity control for Shn3 inhibitor project, CellTiter-Glo, cherry-picked (AID 624134); format: functional, cell-based
Paired box protein Pax-8 = Paired box protein Pax-8 (Homo sapiens, UniProt Q06710); assay: inhibitors of PAX8-driven TPO luciferase reporter, dose response, RMG-I cells, cherry-pick (AID 687027); format: functional, cell-based;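 further: luciferase reporter driven by Pax8 target thyroperoxidase promoter measured by SteadyGlo luminescence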
[21] = cytotoxicity in OVCAR8 ovarian cancer cells, dose response, PAX8 project, cell-based, plate reader, dry powder samples (AID 743197); format: functional; details: OVCAR-8

T3 sequence (P11712 whole entry): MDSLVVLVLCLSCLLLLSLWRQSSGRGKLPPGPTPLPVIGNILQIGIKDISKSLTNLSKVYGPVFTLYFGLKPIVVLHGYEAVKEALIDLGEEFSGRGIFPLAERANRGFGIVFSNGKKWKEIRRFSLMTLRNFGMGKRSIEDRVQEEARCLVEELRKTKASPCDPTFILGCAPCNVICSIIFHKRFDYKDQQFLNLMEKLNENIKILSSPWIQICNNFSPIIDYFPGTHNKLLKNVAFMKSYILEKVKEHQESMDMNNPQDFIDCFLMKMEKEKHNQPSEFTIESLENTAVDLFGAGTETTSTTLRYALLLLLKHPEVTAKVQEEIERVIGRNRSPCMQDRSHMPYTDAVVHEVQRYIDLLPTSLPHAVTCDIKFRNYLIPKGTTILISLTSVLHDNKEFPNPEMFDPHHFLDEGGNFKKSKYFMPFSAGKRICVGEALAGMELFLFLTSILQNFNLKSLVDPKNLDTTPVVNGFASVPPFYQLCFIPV
DNA dC->dU-editing enzyme APOBEC-3G, sequence (Q9HC16 whole entry): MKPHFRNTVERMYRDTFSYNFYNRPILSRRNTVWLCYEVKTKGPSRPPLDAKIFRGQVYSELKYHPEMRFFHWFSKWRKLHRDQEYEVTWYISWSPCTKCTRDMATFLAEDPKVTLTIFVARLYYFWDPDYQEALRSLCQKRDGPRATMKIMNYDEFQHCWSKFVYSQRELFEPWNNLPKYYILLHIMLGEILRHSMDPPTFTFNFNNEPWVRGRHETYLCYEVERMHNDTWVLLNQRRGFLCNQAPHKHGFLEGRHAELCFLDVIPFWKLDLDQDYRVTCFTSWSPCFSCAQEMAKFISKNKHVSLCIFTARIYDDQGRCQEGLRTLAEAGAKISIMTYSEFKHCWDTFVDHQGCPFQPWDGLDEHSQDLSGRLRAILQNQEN
DNA dC->dU-editing enzyme APOBEC-3A, sequence (P31941 whole entry): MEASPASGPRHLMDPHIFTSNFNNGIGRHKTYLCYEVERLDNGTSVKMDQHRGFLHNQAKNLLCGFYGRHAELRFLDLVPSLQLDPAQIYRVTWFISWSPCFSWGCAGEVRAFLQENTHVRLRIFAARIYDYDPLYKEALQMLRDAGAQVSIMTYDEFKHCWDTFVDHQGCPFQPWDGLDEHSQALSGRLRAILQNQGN
Induced myeloid leukemia cell differentiation protein Mcl-1, sequence (Q07820 whole entry): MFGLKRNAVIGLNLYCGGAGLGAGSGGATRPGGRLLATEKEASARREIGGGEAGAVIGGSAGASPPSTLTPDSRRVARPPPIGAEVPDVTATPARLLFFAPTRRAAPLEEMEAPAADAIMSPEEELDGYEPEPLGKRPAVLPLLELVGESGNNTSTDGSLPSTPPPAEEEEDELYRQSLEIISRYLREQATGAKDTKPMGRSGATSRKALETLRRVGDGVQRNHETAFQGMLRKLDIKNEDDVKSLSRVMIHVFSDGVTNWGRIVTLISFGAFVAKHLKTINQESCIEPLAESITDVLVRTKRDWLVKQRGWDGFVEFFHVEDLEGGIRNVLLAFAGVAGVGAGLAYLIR
Cytochrome P450 3A4, sequence (P08684 whole entry): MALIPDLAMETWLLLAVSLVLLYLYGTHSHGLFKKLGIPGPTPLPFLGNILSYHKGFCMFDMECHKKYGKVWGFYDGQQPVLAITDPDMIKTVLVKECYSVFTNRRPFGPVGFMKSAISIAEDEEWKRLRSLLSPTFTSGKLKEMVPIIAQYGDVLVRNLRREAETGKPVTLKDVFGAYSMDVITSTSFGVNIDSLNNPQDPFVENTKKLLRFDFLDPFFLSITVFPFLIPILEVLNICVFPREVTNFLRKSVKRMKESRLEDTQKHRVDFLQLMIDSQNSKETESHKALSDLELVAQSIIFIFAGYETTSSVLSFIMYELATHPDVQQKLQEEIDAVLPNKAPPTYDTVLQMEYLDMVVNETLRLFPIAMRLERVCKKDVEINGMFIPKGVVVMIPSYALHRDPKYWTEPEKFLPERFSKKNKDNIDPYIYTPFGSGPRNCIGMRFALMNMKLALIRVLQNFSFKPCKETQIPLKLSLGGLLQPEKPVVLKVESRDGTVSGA
Paired box protein Pax-8, sequence (Q06710 whole entry): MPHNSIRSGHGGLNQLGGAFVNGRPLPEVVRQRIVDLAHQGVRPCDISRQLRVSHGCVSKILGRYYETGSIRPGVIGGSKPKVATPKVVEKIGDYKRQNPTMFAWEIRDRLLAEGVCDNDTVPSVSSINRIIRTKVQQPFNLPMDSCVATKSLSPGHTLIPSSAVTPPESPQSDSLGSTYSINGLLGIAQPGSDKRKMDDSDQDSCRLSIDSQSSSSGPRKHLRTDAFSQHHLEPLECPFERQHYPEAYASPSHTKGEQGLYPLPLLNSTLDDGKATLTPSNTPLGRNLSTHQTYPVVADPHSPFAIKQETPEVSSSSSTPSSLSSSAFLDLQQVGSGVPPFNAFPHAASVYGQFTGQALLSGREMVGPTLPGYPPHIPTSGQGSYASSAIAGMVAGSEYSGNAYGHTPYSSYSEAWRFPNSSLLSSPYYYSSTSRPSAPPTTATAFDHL
Luciferin 4-monooxygenase, sequence (P08659 whole entry): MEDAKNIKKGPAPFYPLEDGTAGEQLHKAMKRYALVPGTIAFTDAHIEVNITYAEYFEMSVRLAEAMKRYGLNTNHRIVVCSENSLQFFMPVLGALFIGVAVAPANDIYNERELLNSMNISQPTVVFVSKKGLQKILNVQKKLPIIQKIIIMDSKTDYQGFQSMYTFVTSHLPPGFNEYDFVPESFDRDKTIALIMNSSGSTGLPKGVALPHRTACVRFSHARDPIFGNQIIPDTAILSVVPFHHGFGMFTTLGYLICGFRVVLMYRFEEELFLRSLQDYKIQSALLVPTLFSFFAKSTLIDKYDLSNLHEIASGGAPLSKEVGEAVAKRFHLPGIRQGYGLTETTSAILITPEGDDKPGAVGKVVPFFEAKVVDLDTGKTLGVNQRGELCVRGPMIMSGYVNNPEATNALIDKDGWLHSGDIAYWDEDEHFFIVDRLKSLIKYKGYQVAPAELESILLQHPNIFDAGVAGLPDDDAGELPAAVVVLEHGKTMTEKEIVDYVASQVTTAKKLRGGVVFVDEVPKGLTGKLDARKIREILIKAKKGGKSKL
Cytochrome P450 2C19, sequence (P33261 whole entry): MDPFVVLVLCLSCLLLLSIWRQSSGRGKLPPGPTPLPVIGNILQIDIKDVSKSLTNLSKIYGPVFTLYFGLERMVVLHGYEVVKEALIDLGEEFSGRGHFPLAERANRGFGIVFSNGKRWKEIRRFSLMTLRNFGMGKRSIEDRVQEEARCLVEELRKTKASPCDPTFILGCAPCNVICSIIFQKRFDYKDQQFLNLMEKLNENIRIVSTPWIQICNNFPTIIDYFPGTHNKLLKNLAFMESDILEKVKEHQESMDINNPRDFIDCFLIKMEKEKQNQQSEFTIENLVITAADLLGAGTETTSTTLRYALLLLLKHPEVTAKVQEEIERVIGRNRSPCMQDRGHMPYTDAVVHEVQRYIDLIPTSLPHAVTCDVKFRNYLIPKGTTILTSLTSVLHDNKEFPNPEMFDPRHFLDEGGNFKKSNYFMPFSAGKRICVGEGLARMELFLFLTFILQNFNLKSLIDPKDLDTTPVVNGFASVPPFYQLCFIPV
Genome polyprotein, sequence (P29990 2492-3391 limits assumed): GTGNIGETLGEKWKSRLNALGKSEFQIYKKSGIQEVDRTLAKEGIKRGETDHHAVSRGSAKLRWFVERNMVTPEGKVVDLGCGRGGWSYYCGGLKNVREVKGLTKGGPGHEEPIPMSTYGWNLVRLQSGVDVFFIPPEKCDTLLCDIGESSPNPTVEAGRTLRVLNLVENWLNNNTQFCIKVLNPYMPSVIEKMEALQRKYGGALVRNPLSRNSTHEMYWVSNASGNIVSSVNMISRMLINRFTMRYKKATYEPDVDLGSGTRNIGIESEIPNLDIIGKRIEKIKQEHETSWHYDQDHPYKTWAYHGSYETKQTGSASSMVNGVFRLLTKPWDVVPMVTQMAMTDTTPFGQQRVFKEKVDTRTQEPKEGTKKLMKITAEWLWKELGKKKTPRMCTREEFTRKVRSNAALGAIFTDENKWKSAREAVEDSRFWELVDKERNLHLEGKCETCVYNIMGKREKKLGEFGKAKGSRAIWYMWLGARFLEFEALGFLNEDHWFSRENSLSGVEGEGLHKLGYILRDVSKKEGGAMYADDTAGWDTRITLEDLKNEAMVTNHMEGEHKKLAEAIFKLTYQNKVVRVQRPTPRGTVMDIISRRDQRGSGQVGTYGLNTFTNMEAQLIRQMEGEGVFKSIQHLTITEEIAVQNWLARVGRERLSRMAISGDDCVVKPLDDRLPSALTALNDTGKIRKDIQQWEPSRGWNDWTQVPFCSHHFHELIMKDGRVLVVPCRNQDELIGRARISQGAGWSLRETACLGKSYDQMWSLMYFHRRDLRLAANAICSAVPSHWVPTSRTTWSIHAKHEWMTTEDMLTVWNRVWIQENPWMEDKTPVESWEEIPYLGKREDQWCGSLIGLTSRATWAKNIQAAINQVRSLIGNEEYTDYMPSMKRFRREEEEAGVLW

## O=C(c1ccccc1)n1nnc2ccccc21
Prothrombin
  IC50: 0.431 µM (active)

## CC1=C(C(=O)Nc2ccccc2)C(c2ccc(O)cc2)N2C(=O)CSC2=N1 (stereo not drawn)
Prothrombin
  IC50: 25.2 µM (active)

## O=C(Nc1nc(-c2ccccn2)cs1)c1ncc(Cl)c(Cl)c1Cl
[1]
  EC50: 0.39 µM (active)
Streptococcus
  EC50: 1.64 µM (active)
[2]
  AC50: 3.55 µM (active)

## CCN1C(NCCOC)=N[C@@H](c2cccs2)C(C(=O)OC)=C1C
[3]
  IC50: 8.01 µM (active)
[4]
  IC50: 4.37 µM (active)

## COC(=O)C1=C(C)N(Cc2ccccc2)C(NCCCCO)=N[C@H]1c1cccc(C(F)(F)F)c1
[3]
  IC50: 7.1 µM (active)
[4]
  IC50: 4.94 µM (active)

## O=C(Nc1ccccc1)c1cn2ccccc2n1
[5]
  AC50: 6.74 µM (active)
HEK293
  AC50: 3.47 µM (active)
[6]
  AC50: 6.06 µM (active)
[7]
  AC50: > 52 µM (inactive)
[8]
  AC50: 48.4 µM (active)

## COc1ccccc1OC(C)C(=O)N1CCN(Cc2ccc3c(c2)OCO3)CC1 (stereo not drawn)
[3]
  IC50: 8.33 µM (active)
[4]
  IC50: 7.43 µM (active)

## CN(Cc1ccccc1)CC(O)COc1ccc(CNCCCOc2cccnc2)cc1 (stereo not drawn)
[9]
  EC50: > 50 µM (active)

## CCN(c1ccc(NC(=O)COC(=O)/C=C/c2cccs2)cc1)C(C)C
[10]
  IC50: 3.34 µM (active)

## O=C1CCCC(O)=C1Sc1ccccc1C(=O)O
[3]
  IC50: 43.8 µM (active)
[4]
  IC50: 13.3 µM (active)

## NC(=O)c1ccc(-n2nnnc2SCC(=O)Nc2ccccc2F)cc1
[11]
  EC50: > 99 µM (inactive)
[12]
  EC50: > 99 µM (inactive)

## CC(C)c1ccc2oc(=O)cc(CN3CCN(c4ccc(F)cc4)CC3)c2c1
[9]
  EC50: > 50 µM (active)

## Cn1cnc(C(=O)N2CCN(c3ccccc3)CC2)c1C(=O)N1CCN(c2ccccc2)CC1
[3]
  IC50: 6.53 µM (active)
[4]
  IC50: 2.75 µM (active)
[13]
  IC50: 7.05 µM (active)

## CC(=O)c1c(C)[nH]c(C(=O)CSc2nnc(-c3ccc(Cl)cc3)n2CC2CCCO2)c1C (stereo not drawn)
[14]
  EC50: > 112 µM (not active)
[15]
  EC50: > 112 µM (not active)
[9]
  EC50: > 50 µM (active)

## Cc1cc2ncn(C(=O)c3ccc4c(c3)OCO4)c2cc1C
Prothrombin
  IC50: 5.76 µM (active)

## Cc1ccc(-n2c(C)c([N+](=O)[O-])c3ccc(O)c(CN(C)C)c32)cc1
HEK293
  AC50: 8.54 µM (active)

## O=C(NOCc1ccccc1)c1ccc(Cl)cc1Cl
HEK293
  AC50: 3.33 µM (active)

## O=C1C(=Cc2cccn2-c2ccc(O)cc2)C(=O)c2ccccc21
[11]
  EC50: > 99 µM (inactive)
[12]
  EC50: 50.3 µM (inactive)
Genome polyprotein
  IC50: 10.1 µM (active)

## Cc1ccc(C=C2C(=O)c3ccccc3C2=O)o1
[11]
  EC50: > 99 µM (inactive)
[13]
  IC50: 6.25 µM (active)
[12]
  EC50: 85.2 µM (inactive)

## CN1C(=O)NC(c2ccc(O)cc2)C(C(=O)c2cccs2)C1(O)C(F)(F)F (stereo not drawn)
Cytochrome P450 2C9 [16]
  AC50: 39.8 µM (inconclusive)
Cytochrome P450 2C19
  AC50: 15.8 µM (inconclusive)
Cytochrome P450 3A4
  AC50: 25.1 µM (inconclusive)
[9]
  EC50: > 50 µM (active)

## Cc1ccc(NC(=O)c2sccc2C)cc1[N+](=O)[O-]
[9]
  EC50: > 50 µM (active)

## CCCCC(=O)NC(=S)Nc1cccc(NC(=O)CC)c1
Cytochrome P450 2C9 [17]
  AC50: inconclusive
Cytochrome P450 1A2
  AC50: 15.8 µM (inconclusive)
Cytochrome P450 3A4
  AC50: 20 µM (inconclusive)

## CCN1CCN(CC(=O)c2cc(OC)c(OC)c(OC)c2)CC1
Prothrombin
  IC50: > 50 µM (not active)

## COc1cc(C2C3=C(O)c4ccccc4C3=Nc3nc(N)nc(O)c32)ccc1O (stereo not drawn)
[10]
  IC50: 2.76 µM (active)

## CC(C[N+](C)(C)C)OC(=O)C1(c2ccccc2)CCCC1 (stereo not drawn)
[3]
  IC50: 3.58 µM (active)
[4]
  IC50: 2.56 µM (active)

## Nc1c(C(=O)C2CC2)sc2nc(-c3cccs3)cc(C(F)(F)F)c12
[11]
  EC50: > 99 µM (inactive)
[12]
  EC50: 10.6 µM (active)

## Cc1ccc(/C=C2\SC(=S)N(CCC(=O)Nc3cccnc3)C2=O)cc1
[11]
  EC50: > 99 µM (inactive)
[12]
  EC50: > 99 µM (inactive)

## CN(C)c1ccc(C=Cc2ccnc3c(O)cccc23)cc1
HEK293
  AC50: 10 µM (active)
[18]
  AC50: 1.43 µM (active)
[19]
  AC50: 2.57 µM (active)
[20]
  AC50: 52.7 µM (active)

## COc1ccc(CN2[C@H](CO)[C@H]3c4ccccc4NC[C@H]32)cc1
Paired box protein Pax-8
  AC50: 11.2 µM (active)
[21]
  AC50: > 70 µM (inactive)

## CCN1C[C@]2(COC(=O)c3ccccc3N3C(=O)C[C@H](C)C3=O)CC[C@H](OC)[C@]34[C@@H]5C[C@@H]6[C@H](OC)[C@H]5[C@](O)(C[C@@H]6OC)C(O)([C@@H]13)[C@@H](OC)[C@@H]24
Cytochrome P450 2C9 [17]
  AC50: inconclusive
Cytochrome P450 1A2
  AC50: 39.8 µM (inconclusive)

## O=[N+]([O-])c1ccc(N2CCNCC2)cc1NCc1cccnc1
[9]
  EC50: > 50 µM (active)
